In patent publication US9174974B2, “Macrocyclic factor VIIa inhibitors” (BRISTOL-MYERS SQUIBB COMPANY, priority 2012, dated 2015):
pKi: −log10 of the molar value. Like-named read-outs stand apart in the source and are kept apart here.

Assays:
human FVIIa = human FVIIa (Homo sapiens (Human), UniProt P08709); assay: FVIIa Ki (37° C.), FVIIa-Xase assay; format: biochemical; conditions: for Ki(HK1)/Ki(FVIIa): selectivity ratio, tissue kallikrein (HK1) vs FVIIa; for Ki: read-out: FVIIa Ki, nM 37° C.
Sequence of human FVIIa (P08709 61-212): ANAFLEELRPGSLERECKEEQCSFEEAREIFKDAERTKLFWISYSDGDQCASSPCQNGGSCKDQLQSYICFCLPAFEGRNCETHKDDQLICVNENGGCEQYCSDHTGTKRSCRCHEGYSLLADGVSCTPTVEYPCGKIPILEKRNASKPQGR
Sequence of human FVIIa (P08709 213-466): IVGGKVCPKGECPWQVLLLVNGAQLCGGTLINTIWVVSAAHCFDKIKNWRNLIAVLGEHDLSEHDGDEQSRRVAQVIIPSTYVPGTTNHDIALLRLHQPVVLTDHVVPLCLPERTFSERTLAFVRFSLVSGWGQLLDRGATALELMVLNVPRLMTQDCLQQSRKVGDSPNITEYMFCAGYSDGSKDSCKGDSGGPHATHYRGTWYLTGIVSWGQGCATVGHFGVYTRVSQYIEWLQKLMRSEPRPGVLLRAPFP
Sequence of human FVIIa (P13726 33-295 partner): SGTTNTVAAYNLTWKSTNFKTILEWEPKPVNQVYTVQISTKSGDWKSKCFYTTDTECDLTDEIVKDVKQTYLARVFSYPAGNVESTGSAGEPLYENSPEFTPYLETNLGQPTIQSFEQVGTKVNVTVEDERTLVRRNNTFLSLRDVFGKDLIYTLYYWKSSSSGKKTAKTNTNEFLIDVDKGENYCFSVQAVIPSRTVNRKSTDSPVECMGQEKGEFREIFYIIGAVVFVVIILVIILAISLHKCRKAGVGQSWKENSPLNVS

tissue kallikrein (HK1) = tissue kallikrein (HK1) (Homo sapiens (Human), UniProt P06870); assay: Tissue kallikrein-1 (HK1) Ki, fluorogenic substrate assay; format: biochemical; conditions: 37° C.
Sequence of tissue kallikrein (HK1) (P06870 25-262): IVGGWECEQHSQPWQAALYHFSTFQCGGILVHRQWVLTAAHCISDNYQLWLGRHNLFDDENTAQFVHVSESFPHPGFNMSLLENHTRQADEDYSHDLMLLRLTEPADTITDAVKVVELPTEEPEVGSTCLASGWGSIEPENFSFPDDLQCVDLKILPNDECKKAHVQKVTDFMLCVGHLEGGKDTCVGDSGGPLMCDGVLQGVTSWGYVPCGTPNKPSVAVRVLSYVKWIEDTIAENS

| Compound | pKi (human FVIIa) | Ki(HK1)/Ki(FVIIa) (human FVIIa) | pKi (tissue kallikrein (HK1)) | Ki (human FVIIa) [nM] |
| --- | --- | --- | --- | --- |
| Cc1cc2ccc1[C@@H](C)COC(=O)Nc1cc(F)c(OCC3(C#N)CC3)c(c1)CN(C)C(=O)[C@@H]2Nc1ccc2c(N)nccc2c1.O=C(O)C(F)(F)F [Example 18, 1-({[(2R,15R)-2-[(1-Aminoisoquinolin-6-yl)amino]-8-fluoro-4,15,20-trimethyl-3,12-dioxo-13-oxa-4,11-diazatricyclo[14.2.2.1^6,10]henicosa-1(18),6,8,10 (21),16,19-hexaen-7-yl]oxy}methyl)cyclopropane-1-carbonitrile; trifluoroacetic acid] | 9.36 | 1114 | 6.31 | – |
| Cc1cc2ccc1[C@@H](C)COC(=O)Nc1cc(F)c(S(=O)(=O)C(C)C)c(c1)CN(C)C(=O)[C@@H]2Nc1cc(F)c2c(N)nccc2c1.O=C(O)C(F)(F)F [Example 20, (2R,15R)-2-[(1-Amino-8-fluoroisoquinolin-6-yl)amino]-8-fluoro-4,15,17-trimethyl-7-(propane-2-sulfonyl)-13-oxa-4,11-diazatricyclo[14.2.2.1^6,10]henicosa-1(18),6,8,10 (21),16,19-hexaene-3,12-dione; trifluoroacetic acid] | – | 333 | 6.92 | 0.36 |
| CCN(Cc1nccs1)C(=O)c1ccc2cc1CN(C)C(=O)[C@H](Nc1ccc3c(N)nccc3c1)c1ccc(c(C)c1)[C@@H](C)COC(=O)N2.O=C(O)C(F)(F)F [Example 23, (2R,15R)-2-[(1-Aminoisoquinolin-6-yl)amino]-N-ethyl-4,15,17-trimethyl-3,12-dioxo-N-(1,3-thiazol-2-ylmethyl)-13-oxa-4,11-diazatricyclo[14.2.2.1^6,10]henicosa-1(18),6,8,10 (21),16,19-hexaene-7-carboxamide; trifluoroacetic acid] | – | 1100 | 6.48 | 0.3 |
| COc1cc2c(F)cc1[C@@H](C)COC(=O)Nc1ccc(S(=O)(=O)C3CC3)c(c1)CN(C)C(=O)[C@@H]2Nc1cc2ccnc(N)c2cc1F.O=C(O)C(F)(F)F [Example 25, (2R,15R)-2-[(1-Amino-7-fluoroisoquinolin-6-yl)amino]-7-(cyclopropanesulfonyl)-18-fluoro-20-methoxy-4,15-dimethyl-13-oxa-4,11-diazatricyclo[14.2.2.1^6,10]henicosa-1(18),6,8,10 (21),16,19-hexaene-3,12-dione; trifluoroacetic acid] | – | 1080 | 6.57 | 0.25 |
| Cc1cc2ccc1[C@@H](C)COC(=O)Nc1cc(F)c(O[C@@H]3COC[C@@H]3O)c(c1)CN(C)C(=O)[C@@H]2Nc1ccc2c(N)nccc2c1.O=C(O)C(F)(F)F [Example 27, (2R,15R)-2-[(1-Aminoisoquinolin-6-yl)amino]-8-fluoro-7-{[(3R,4S)-4-hydroxyoxolan-3-yl]oxy}-4,15,17-trimethyl-13-oxa-4,11-diazatricyclo[14.2.2.1^6,10]henicosa-1(18),6,8,10 (21),16,19-hexaene-3,12-dione; trifluoroacetic acid] | – | 1391 | 6.49 | 0.23 |
| COCCCOc1c(F)cc2cc1CN(C)C(=O)[C@H](Nc1ccc3c(N)nccc3c1)c1ccc(c(C)c1)[C@@H](C)COC(=O)N2.O=C(O)C(F)(F)F [Example 28, (2R,15R)-2-[(1-Aminoisoquinolin-6-yl)amino]-8-fluoro-7-(3-methoxypropoxy)-4,15,20-trimethyl-13-oxa-4,11-diazatricyclo[14.2.2.1^6,10]henicosa-1(18),6,8,10 (21),16,19-hexaene-3,12-dione; trifluoroacetic acid] | – | 1450 | 6.54 | 0.2 |
